Measurements reported in the supplement of paper PMC10307832.

Experiments:
Assay in all cases: relative viability (nuclei count vs DMSO), 5 days (fraction); higher = more cells survive
[1] = compound: C1/C(=C\C2=CC=CS2)/C(=O)/C(=C/C3=CC=CS3)/C1 + N=C(N)NC(=N)NCCc1ccccc1 [Phenformin] (partner 250 µM)
In short: (§1)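 Relative viability divides the nuclei count in treated wells by that in vehicle wells. Lung cancer cell lines were seeded in 1536-well plates, dosed by pin tool the next day, and fixed and stained after 5 days in one step with final 0.05% Triton X-100, 1% formaldehyde and 1 ug/ml Hoechst. Dosing was a single drug or a fixed anchor-drug dose plus five library-drug doses (not always all listed) in √10 steps, and values are medians of duplicate plates imaged at 4×.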

TPCA-1 + Crizotinib = compound: C1=CC(=CC=C1C2=CC(=C(S2)NC(=O)N)C(=O)N)F [TPCA-1] + C[C@@H](Oc1cc(-c2cnn(C3CCNCC3)c2)cnc1N)c1c(Cl)ccc(F)c1Cl [Crizotinib] (partner 1 µM)
In short: as §1

TPCA-1 + Phenformin = compound: C1=CC(=CC=C1C2=CC(=C(S2)NC(=O)N)C(=O)N)F [TPCA-1] + N=C(N)NC(=N)NCCc1ccccc1 [Phenformin] (partner 250 µM)
In short: as §1

[2] = compound: C[C@]12O[C@H](C[C@]1(O)CO)n1c3ccccc3c3c4c(c5c6ccccc6n2c5c31)CNC4=O [Lestaurtinib] + Cc1cc(Nc2cc(N3CCN(C)CC3)nc(Sc3ccc(NC(=O)C4CC4)cc3)n2)n[nH]1 [Tozasertib] (partner 0.1 µM)
In short: as §1

| Cell Line | relative viability ([1]; first compound 0.2 µM) | relative viability ([1]; first compound 0.6325 µM) | relative viability ([1]; first compound 2 µM) | relative viability ([1]; first compound 6.325 µM) | relative viability ([1]; first compound 20 µM) | relative viability (TPCA-1 + Crizotinib; first compound 0.04 µM) | relative viability (TPCA-1 + Crizotinib; first compound 0.1265 µM) | relative viability (TPCA-1 + Crizotinib; first compound 0.4 µM) | relative viability (TPCA-1 + Crizotinib; first compound 1.265 µM) | relative viability (TPCA-1 + Crizotinib; first compound 4 µM) | relative viability (TPCA-1 + Phenformin; first compound 0.04 µM) | relative viability (TPCA-1 + Phenformin; first compound 0.1265 µM) | relative viability (TPCA-1 + Phenformin; first compound 0.4 µM) | relative viability (TPCA-1 + Phenformin; first compound 1.265 µM) | relative viability (TPCA-1 + Phenformin; first compound 4 µM) | relative viability ([2]; first compound 0.005 µM) | relative viability ([2]; first compound 0.01581 µM) | relative viability ([2]; first compound 0.05 µM) | relative viability ([2]; first compound 0.1581 µM) | relative viability ([2]; first compound 0.5 µM) |
| --- | --- | --- | --- | --- | --- | --- | --- | --- | --- | --- | --- | --- | --- | --- | --- | --- | --- | --- | --- | --- |
| NCI-H650 | 0.43 | 0.442 | 0.465 | 0.45 | 0.449 | 0.707 | 0.522 | 0.688 | 0.373 | 0.382 | 0.493 | 0.436 | 0.466 | 0.311 | 0.293 | 0.727 | 0.802 | 0.603 | 0.483 | 0.29 |
| CAL-12T | 0.651 | 0.672 | 0.562 | 0.585 | 0.574 | 0.597 | 0.588 | 0.675 | 0.717 | 0.381 | 0.622 | 0.51 | 0.612 | 0.51 | 0.172 | 0.32 | 0.44 | 0.333 | 0.37 | 0.332 |
| NCI-H838 | 0.689 | 0.541 | 0.687 | 0.65 | 0.519 | 0.837 | 0.752 | 0.806 | 0.698 | 0.471 | 0.612 | 0.516 | 0.672 | 0.367 | 0.288 | 0.275 | 0.238 | 0.275 | 0.2 | 0.171 |
| NCI-H2228 | 0.422 | 0.297 | 0.369 | 0.335 | 0.357 | 0.589 | 0.489 | 0.487 | 0.364 | 0.277 | 0.396 | 0.292 | 0.412 | 0.285 | 0.272 | 0.178 | 0.23 | 0.257 | 0.219 | 0.163 |
| RERF-LC-KJ | 0.407 | 0.461 | 0.474 | 0.432 | 0.432 | 0.875 | 0.815 | 0.835 | 0.792 | 0.758 | 0.425 | 0.393 | 0.424 | 0.408 | 0.37 | 0.489 | 0.592 | 0.44 | 0.433 | 0.284 |
| NCI-H661 | 0.288 | 0.259 | 0.275 | 0.253 | 0.307 | 0.968 | 0.889 | 1.05 | 0.988 | 0.825 | 0.281 | 0.272 | 0.269 | 0.306 | 0.253 | 0.359 | 0.361 | 0.395 | 0.423 | 0.417 |
| HCC-366 | 0.569 | 0.638 | 0.625 | 0.55 | 0.613 | 0.562 | 0.644 | 0.588 | 0.472 | 0.258 | 0.727 | 0.617 | 0.652 | 0.673 | 0.098 | 0.174 | 0.126 | 0.142 | 0.0841 | 0.072 |
| SK-LU-1 | 0.634 | 0.56 | 0.672 | 0.473 | 0.486 | 0.862 | 0.667 | 1.07 | 0.675 | 0.556 | 0.719 | 0.461 | 0.662 | 0.44 | 0.238 | 0.288 | 0.349 | 0.267 | 0.293 | 0.204 |
| HCC-44 | 0.161 | 0.27 | 0.278 | 0.21 | 0.161 | 0.798 | 0.708 | 0.76 | 0.681 | 0.644 | 0.195 | 0.178 | 0.209 | – | 0.153 | 0.882 | 1.08 | 0.996 | 1.48 | 0.354 |
| A-427 | 0.346 | 0.417 | 0.273 | 0.292 | 0.278 | 0.856 | 0.817 | 1.09 | 0.879 | 0.625 | 0.423 | 0.283 | 0.371 | 0.19 | 0.145 | 0.199 | 0.206 | 0.183 | 0.159 | 0.144 |
| SW 1573 | 0.397 | 0.412 | 0.355 | 0.363 | 0.398 | 0.881 | 0.754 | 0.728 | 0.673 | 0.622 | 0.341 | 0.323 | 0.411 | 0.296 | 0.331 | 0.146 | 0.172 | 0.142 | 0.1 | 0.116 |
| NCI-H322M | 0.85 | 0.814 | 0.923 | 0.628 | 0.768 | 0.807 | 0.924 | 0.873 | 0.841 | 0.728 | 0.922 | 0.7 | 0.797 | 0.795 | 0.375 | 0.483 | 0.276 | 0.355 | 0.397 | 0.415 |
| ABC-1 | 0.234 | 0.253 | 0.247 | 0.219 | 0.211 | 1.38 | 1.05 | 0.957 | 0.733 | 0.569 | 0.292 | 0.22 | 0.197 | 0.211 | 0.203 | 0.208 | 0.175 | 0.134 | 0.155 | 0.2 |
| LK-2 | 0.576 | 0.505 | 0.622 | 0.379 | 0.483 | 0.22 | 0.229 | 0.289 | 0.206 | 0.313 | 0.868 | 0.236 | 0.444 | 0.603 | 0.206 | 0.161 | 0.183 | 0.165 | 0.17 | 0.164 |
| NCI-H2023 | 0.414 | 0.488 | 0.439 | 0.396 | 0.383 | 0.75 | 0.667 | 0.658 | 0.636 | 0.512 | 0.488 | 0.423 | 0.476 | 0.359 | 0.269 | 0.386 | 0.554 | 0.357 | 0.269 | 0.0989 |
| NCI-H596 | 0.711 | 0.799 | 0.846 | 0.78 | 0.857 | 1.01 | 1.1 | 0.522 | 0.972 | 1.01 | 0.857 | 0.678 | 0.764 | 0.746 | 0.658 | 0.885 | 1.16 | 0.746 | 1.06 | 0.955 |
